Experimental findings from patent publication US20230416196A1, “DIMER OF BIGUANIDINES AND THEIR THERAPEUTIC USES” (INSTITUT CURIE, priority 2020, published 2023) are described below.

The structures appear in SMILES notation.

In one experiment the test system is monocytes. Kind of experiment: Activation of monocytes (CD25, CD80 flow cytometry). The format is cell-based, human. The following applies: LCC-12 10 μM, 24 h, LPS; FIG. 6D. The method, then:
Monocytes. Peripheral blood samples were collected from healthy donors (Etablissement Français du Sang). Pan monocytes were isolated by negative magnetic sorting using microbeads according to the manufacturer's instructions (Miltenyi Biotec, 130-096-537), and cultured in RPMI 1640 supplemented with glutamine, 10% fetal bovine serum. Monocytes were treated with lipopolysaccharides (LPS, 100 ng/mL, 24 h) to generate activated monocytes and were co-treated with LCC-12 (in-house, 10 μM, 24 h). The activation status of the monocytes was assessed by measuring CD25 and CD80 surface markers by flow cytometry.
(In general: In flow cytometry, cells or beads pass a laser one at a time.)

Experiment [1] concerns mice challenged by cecal ligation and puncture. As to the kind of experiment: Murine model of sepsis using cecal ligation and puncture (CLP). It is filed as in vivo, BALB/c mice. As for the experimental part: Murine model of sepsis using cecal ligation and puncture. All animal-related research is conducted in accordance with 2010/63/EU and National legislation regulating the use of laboratory animals in scientific research and for other purposes (Official Gazette 55/13). An Institutional Committee on Animal Research Ethics (CEEA-047) oversees that animal-related procedures are not compromising the animal welfare. 9 weeks-old male BALB/c mice were used for these experiments. Animals were anesthetized by isoflurane (Forene). After abdominal incision, the cecum was ligated, punctured with a gauge needle (25G or 21G), and a small amount of fecal matter was released. After the cecum was returned to the abdomen, the abdominal cavity was closed in two layers and the mice were resuscitated with 30 mL/kg body weight of saline (0.9% NaCl) administered subcutaneously. For the sham group, after abdominal incision, the cecum was manipulated but was neither ligated nor punctured. After the cecum was returned to the abdomen, the abdominal cavity was closed in two layers and the mice were resuscitated with 30 mL/kg body weight of saline administered subcutaneously. LCC-12 (0.3 mg/kg, IP) was administered at 0.3 mg/kg dose 4 h, 24 h, 48 h, 72 h and 96 h following CLP creation. Mortality incidence was monitored every 2 h up to 120 h (except from 10 pm to 6 am) post CLP creation. Dexamethasone was administered intraperitoneally at 1 mg/kg dose 5-minutes prior CLP creation.

A further experiment relates to neutrophils. Kind of experiment: Activation of neutrophils (CD64, CD66b flow cytometry). As to conditions: LCC-12 10 μM, 1 h, LPS; FIG. 6C. It is filed as cell-based, human. As for the experimental part: Neutrophils. Peripheral blood samples were collected from healthy donors (Etablissement Français du Sang). Then, red cells in whole blood samples were lysed (ebioscience 10×RBC lysis buffer, 00-4300-54). The remaining cells were cultured in RPMI 1640 supplemented with glutamine, and 2% human serum, and activated 1 h with LPS (2 μg/mL) in presence of LCC-12 (10 μM). The granulocytes/neutrophils population was determined by flow cytometry using FSC, SSC and CD15 surface marker. The activation status of the granulocytes was assessed by measuring CD64 and CD66b surface markers by flow cytometry.

Experiment [2] relates to mitochondrial NAD^+ and NADH in aMDM. Kind of experiment: Mass spectrometry-based metabolomics of mitochondrial NAD+ and NADH in aMDM. It is filed as cell-based, human. As to conditions: treatment during macrophage activation; FIG. 11D. The method, then:
Mitochondrial extraction. Mitochondria were isolated using the Qproteome Mitochondria Isolation Kit (Qiagen, 37612) according to the manufacturer's protocol. In brief, cells were washed and centrifuged at 500× g for 10 min and the supernatant was removed. Cells were then washed with a solution of 0.9% NaCl (Sigma-Aldrich, 57653-250G) and resuspended in ice-cold Lysis Buffer and incubated at 4° C. for 10 min. The lysate was then centrifuged at 1000×g for 10 min at 4° C. and the supernatant carefully removed. Subsequently, the cell pellet was resuspended in disruption buffer. Complete cell disruption was obtained by using a dounce homogenizer (mitochondria for ICP-MS) or a blunt-ended needle and a syringe (mitochondria for metabolomics). The lysate was then centrifuged at 1000× g for 10 min at 4° C. and the supernatant transferred to a clean tube. The supernatant was then centrifuged at 6000× g for 10 min at 4° C. to obtain pellets containing mitochondria.
Quantitative metabolomics. In a typical experiment 1.5 million cells were used for total extracts and 15 million cells for mitochondrial extracts. Cells were harvested and the supernatant removed to generate the corresponding cell pellets. […] Peak detection and integration of the analytes were performed using the Agilent Mass Hunter quantitative software (B.07.01). […]

In the case of `N=C(N)NC(=N)NCCCCCCCCCCCCNC(=N)NC(=N)N` [LCC-12, lipophilic copper clamp C12], the activation of monocytes entry with monocytes is recorded as “decreases the activation”. Moreover, the “survival in CLP sepsis” value in experiment [1] (21G needle, LCC-12 0.3 mg/kg IP, FIG. 5A) was “delayed death and increased survival rate”. Further, in experiment [1] (25G needle, LCC-12 0.3 mg/kg IP, FIG. 5C), the “body weight loss in CLP-induced sublethal sepsis” value was “reduced body weight loss”. In experiment [1] (25G needle, LCC-12 0.3 mg/kg IP, FIG. 5D), the “overall gravity score of symptoms in CLP-induced sublethal sepsis” value is reported as “improved the overall gravity score of symptoms”. For the same compound, the “symptoms of sepsis compared to dexamethasone” value in experiment [1] (CLP, throughout the treatments) is “considerably attenuated the symptoms of sepsis compared to dexamethasone”. Further, in the experiment on neutrophils, the “activation of neutrophils in vitro” value was “does not impact the activation”. Besides, the “mitochondrial NAD^+ and NADH levels” value in experiment [2] is “decrease of both mitochondrial NAD^+ and NADH”.
